Data reported in US20190105367A1, “ANTIMICROBIAL 4-OXOQUINOLIZINES” (Emergent Product Development Gaithersburg Inc., priority 2011, published 2019).
In brackets after ≈: the same amount, converted by molar mass. Like-named read-outs stand apart in the source and are kept apart here.

How the values were obtained:
[1] = system: strains of A. baumannii and one strain of Acinetobacter sp.; test: MIC with sub-inhibitory concentrations (0.25x MIC) of polymyxin B, panel of Acinetobacter strains (Example 4); format: cell-based
A. baumannii ATCC 19606 = test: MIC without and with sub-inhibitory polymyxin B (Example 4); format: cell-based, Acinetobacter baumannii; details: A. baumannii ATCC 19606
A. baumannii J2 [2] = test: as above; format: cell-based, Acinetobacter baumannii; details: for MIC without PB/MIC + PB: A. baumannii J2; for MIC: Acinetobacter baumannii
A. baumannii J2 [3] = test: Preliminary MBC without and with sub-inhibitory polymyxin B (Example 4); format: cell-based, Acinetobacter baumannii; details: Acinetobacter baumannii
[4] = system: Acinetobacter sp. (H064200250); test: MIC without and with sub-inhibitory polymyxin B (Example 4); format: cell-based
A. baumannii A329 [5] = test: as above; format: cell-based, Acinetobacter baumannii; details: A. baumannii A329; +0.06 μg/ml PB; 2nd experiment
A. baumannii A329 [6] = test: Preliminary MBC without and with sub-inhibitory polymyxin B (Example 4); format: cell-based, Acinetobacter baumannii; details: Acinetobacter baumannii, A329, A. baumannii A329, +0.06 μg/ml PB, 2nd experiment, read-out: MBC
A. baumannii A387 [7] = test: MIC without and with sub-inhibitory polymyxin B (Example 4); format: cell-based, Acinetobacter baumannii; details: A. baumannii A387
A. baumannii A387 [8] = test: Preliminary MBC without and with sub-inhibitory polymyxin B (Example 4); format: cell-based, Acinetobacter baumannii; details: Acinetobacter baumannii, A387, A. baumannii A387, +0.06 μg/ml PB, 2nd experiment, read-out: MBC
A. baumannii A390 = test: MIC without and with sub-inhibitory polymyxin B (Example 4); format: cell-based, Acinetobacter baumannii; details: A. baumannii A390; +0.06 μg/ml PB; 2nd experiment
A. baumannii A14 [9] = test: Preliminary MBC without and with sub-inhibitory polymyxin B (Example 4); format: cell-based, Acinetobacter baumannii; details: A. baumannii A14, +0.06 μg/ml PB, 2nd experiment
Method: (§1) The plates were incubated for 18-20 hours at 37° C. The MBC was read as the lowest concentration at which colony growth was ca. 90% less than the positive control (i.e. usually where single colonies or no colonies were observed).

A. baumannii NCTC 13301 [10] = test: as above; format: cell-based, Acinetobacter baumannii; details: Acinetobacter baumannii, NCTC13301, A. baumannii NCTC 13301; +[…] PB; preliminary MBC; 2nd experiment; read-out: MBC
Method: as §1

A. baumannii A401 [11] = test: MIC without and with sub-inhibitory polymyxin B (Example 4); format: cell-based, Acinetobacter baumannii; details: A baumannii A 401; ratio, PB 0.06 μg/ml; 1st experiment
A. baumannii A401 [12] = test: Preliminary MBC without and with sub-inhibitory polymyxin B (Example 4); format: cell-based, Acinetobacter baumannii; details: Acinetobacter baumannii, A401, A baumannii A 401, +0.06 μg/ml PB, 2nd experiment, read-out: MBC
A. baumannii A472 [13] = test: MIC without and with sub-inhibitory polymyxin B (Example 4); format: cell-based, Acinetobacter baumannii; details: for MIC: Acinetobacter baumannii
A. baumannii A472 [14] = test: Preliminary MBC without and with sub-inhibitory polymyxin B (Example 4); format: cell-based, Acinetobacter baumannii; details: Acinetobacter baumannii, A472, A. baumannii A472; +[…] PB; preliminary MBC; 2nd experiment; read-out: MBC
A. baumannii A473 = test: MIC without and with sub-inhibitory polymyxin B (Example 4); format: cell-based, Acinetobacter baumannii; details: A. baumannii A473; +0.06 μg/ml PB; 2nd experiment
A. baumannii A489 = test: as above; format: cell-based, Acinetobacter baumannii; details: for MIC without PB/MIC + PB: A. baumannii A489; for MIC: Acinetobacter baumannii
A. baumannii NCTC 13301 [15] = test: as above; format: cell-based, Acinetobacter baumannii
A. baumannii NCTC 13301 [16] = test: as above; format: cell-based, Acinetobacter baumannii; details: +[…] PB, 2nd experiment
A. baumannii A14 [17] = test: as above; format: cell-based, Acinetobacter baumannii; details: 1st experiment
A. baumannii A14 [18] = test: as above; format: cell-based, Acinetobacter baumannii; details: A. baumannii A14; +0.06 μg/ml PB; 2nd experiment
[19] = ratio, PB 0.06 μg/ml, 1st experiment

SMILES: C[C@H]1COc2c(N3CCN(C)CC3)c(F)cc3c(=O)c(C(=O)O)cn1c23 [Levofloxacin, reference compound]
- Range ratios MIC without PB/MIC with PB Oct. 1, 2008 n = 8 ([1]; 1st experiment): 1-4
- MIC range with PB (0.25x MIC) Oct. 1, 2008 n = 8 ([1]; 1st experiment, […] polymyxin B, ATCC 19606, A329, A390 and A473 not taken): 4 to 32 µg/mL
- Range ratios MIC without PB/MIC with PB Oct. 14, 2008 n = 11 ([1]; 2nd experiment): 0.5-8
- MIC range with PB (0.25x MIC) Oct. 14, 2008 n = 11 ([1]; 2nd experiment, 0.06 μg/ml polymyxin B, all strains except the ATCC strain): 4 to 32 µg/mL
- MIC without PB/MIC + PB (A. baumannii ATCC 19606; +0.06 μg/ml PB, 2nd experiment): 1
- MIC without PB/MIC + PB (A. baumannii ATCC 19606; [19]): 1
- MIC without PB/MIC + PB (A. baumannii J2 [2]; +[…] PB, 2nd experiment): 8
- MIC without PB/MIC + PB (A. baumannii J2 [2]; ratio, PB […], 1st experiment): 4
- MIC (A. baumannii J2 [2]; J2, A. baumannii J2, +[…] PB, 2nd experiment, read-out: MIC): 4 µg/mL (≈ 11.1 µM)
- MIC (A. baumannii J2 [2]; J2, read-out: MIC +[…] PB, A. baumannii J2, +[…] polymyxin B, 1st experiment): 8 µg/mL (≈ 22.1 µM)
- MBC (A. baumannii J2 [3]; J2, A. baumannii J2, +[…] PB, preliminary MBC, 2nd experiment, read-out: MBC): 4 µg/mL (≈ 11.1 µM)
- MBC (A. baumannii J2 [3]; J2, read-out: MBC +[…] PB): 8 µg/mL (≈ 22.1 µM)
- MIC without PB/MIC + PB ([4]; Acinetobacter spp. H064200250 (OXA51), +[…] PB, 2nd experiment): 2
- MIC without PB/MIC + PB ([4]; Acinetobacter spp. H064200250, ratio, PB […], 1st experiment): 1
- MIC ([4]; Acinetobacter, Acinetobacter spp. H064200250 (OXA51), +[…] PB, 2nd experiment, read-out: MIC): 8 µg/mL (≈ 22.1 µM)
- MIC without PB/MIC + PB (A. baumannii A329 [5]): 0.5
- MBC (A. baumannii A329 [6]): 16 µg/mL (≈ 44.3 µM)
- MIC without PB/MIC + PB (A. baumannii A387 [7]; +0.06 μg/ml PB, 2nd experiment): 1
- MIC without PB/MIC + PB (A. baumannii A387 [7]; [19]): 1
- MBC (A. baumannii A387 [8]): 4 µg/mL (≈ 11.1 µM)
- MIC without PB/MIC + PB (A. baumannii A390): 2
- MBC (A. baumannii A14 [9]): 16.00 µg/mL (≈ 44.3 µM)
- MBC (A. baumannii NCTC 13301 [10]): 4 µg/mL (≈ 11.1 µM)
- MIC without PB/MIC + PB (A. baumannii A401 [11]): 1
- MBC (A. baumannii A401 [12]): 8 µg/mL (≈ 22.1 µM)
- MIC without PB/MIC + PB (A. baumannii A472 [13]; A. baumannii A472, ratio, PB […], 1st experiment): 4
- MIC (A. baumannii A472 [13]; A472, A. baumannii A472, +[…] PB, 2nd experiment, read-out: MIC): 4 µg/mL (≈ 11.1 µM)
- MIC (A. baumannii A472 [13]; A472, read-out: MIC +[…] PB, A. baumannii A472, +[…] polymyxin B, 1st experiment): 4 µg/mL (≈ 11.1 µM)
- MBC (A. baumannii A472 [14]): 4 µg/mL (≈ 11.1 µM)
- MIC without PB/MIC + PB (A. baumannii A473): 1
- MIC without PB/MIC + PB (A. baumannii A489; +[…] PB, 2nd experiment): 4
- MIC without PB/MIC + PB (A. baumannii A489; ratio, PB […], 1st experiment): 2
- MIC (A. baumannii A489; A489, A. baumannii A489, +[…] PB, 2nd experiment, read-out: MIC): 8 µg/mL (≈ 22.1 µM)
- MIC (A. baumannii A489; A489, read-out: MIC +[…] PB, A. baumannii A489, +[…] polymyxin B, 1st experiment): 8 µg/mL (≈ 22.1 µM)
- MIC without PB/MIC + PB (A. baumannii NCTC 13301 [15]; A. baumannii NCTC 13301, ratio, PB […], 1st experiment): 2
- MIC (A. baumannii NCTC 13301 [15]; Acinetobacter baumannii, NCTC13301, read-out: MIC +[…] PB): 16 µg/mL (≈ 44.3 µM)
- MIC without PB/MIC + PB (A. baumannii NCTC 13301 [16]; A. baumannii NCTC 13301): 4
- MIC (A. baumannii NCTC 13301 [16]; Acinetobacter baumannii, NCTC13301, A. baumannii NCTC 13301, read-out: MIC): 8 µg/mL (≈ 22.1 µM)
- MIC +0.06 μg/ml PB (A. baumannii A14 [17]; +0.06 μg/ml polymyxin B): 32 µg/mL
- MIC without PB/MIC + PB (A. baumannii A14 [17]; ratio, PB 0.06 μg/ml): 1
- MIC (A. baumannii A14 [18]): 16.00 µg/mL (≈ 44.3 µM)
- MIC without PB/MIC + PB (A. baumannii A14 [18]): 2
